{"source": "ChEMBL document CHEMBL1201862", "about": "“PubChem BioAssay data set” (2004)", "test_in_all_cases": "NCI anticancer screen, dose series, 48 h", "key": {"[1]": {"tested_on": "NCI/ADR-RES"}, "[2]": {"tested_on": "UACC-62"}, "[3]": {"tested_on": "OVCAR-5"}, "[4]": {"tested_on": "HL-60"}, "[5]": {"tested_on": "LOX IMVI"}, "[6]": {"tested_on": "M14"}, "[7]": {"tested_on": "HT-29"}, "[8]": {"tested_on": "MDA-MB-435"}, "[9]": {"tested_on": "Hs-578T"}, "[10]": {"tested_on": "SK-MEL-2"}, "[11]": {"tested_on": "SW-620"}, "[12]": {"tested_on": "DU-145"}, "[13]": {"tested_on": "CCRF-CEM"}, "[14]": {"tested_on": "SK-OV-3"}, "[15]": {"tested_on": "A549"}, "[16]": {"tested_on": "HOP-62"}, "[17]": {"tested_on": "ACHN"}, "[18]": {"tested_on": "K562"}, "[19]": {"tested_on": "NCI-H226"}}, "note": "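Each compound was tested at five concentrations against cells in 96-well plates for 48 hours. GI50 = concentration required for 50% inhibition of growth.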 Calls of active or inactive are those of the source. Cut-off read from the data, not from the text of the source: active = GI50 up to about 1.1 µM and inactive = higher.", "data": [{"smiles": "CCN(CC)CCCC(C)Nc1ccnc(/C=C/c2ccc(Cl)cc2)c1", "note": "(stereo not given)", "values": [{"measurement": "GI50", "setting": "[1]", "result": "3.12 µM (inactive)"}, {"measurement": "GI50", "setting": "[2]", "result": "1.94 µM (inactive)"}, {"measurement": "GI50", "setting": "[3]", "result": "2.61 µM (inactive)"}, {"measurement": "GI50", "setting": "[4]", "result": "2.07 µM (inactive)"}, {"measurement": "GI50", "setting": "[5]", "result": "1.26 µM (inactive)"}, {"measurement": "GI50", "setting": "[6]", "result": "1.11 µM (active)"}, {"measurement": "GI50", "setting": "[7]", "result": "3.49 µM (inactive)"}, {"measurement": "GI50", "setting": "[8]", "result": "1.56 µM (inactive)"}, {"measurement": "GI50", "setting": "[9]", "result": "2.26 µM (inactive)"}, {"measurement": "GI50", "setting": "[10]", "result": "2.11 µM (inactive)"}, {"measurement": "GI50", "setting": "[11]", "result": "1.54 µM (inactive)"}, {"measurement": "GI50", "setting": "[12]", "result": "9.08 µM (inactive)"}, {"measurement": "GI50", "setting": "[13]", "result": "1.2 µM (inactive)"}, {"measurement": "GI50", "setting": "[14]", "result": "3.61 µM (inactive)"}, {"measurement": "GI50", "setting": "[15]", "result": "1.91 µM (inactive)"}, {"measurement": "GI50", "setting": "[16]", "result": "1.84 µM (inactive)"}, {"measurement": "GI50", "setting": "[17]", "result": "3.32 µM (inactive)"}, {"measurement": "GI50", "setting": "[18]", "result": "0.135 µM (active)"}]}, {"smiles": "O=[N+]([O-])c1ccc2nc(-c3ccccn3)c(-c3ccccn3)nc2c1", "values": [{"measurement": "GI50", "setting": "[1]", "result": "> 100 µM (inactive)"}, {"measurement": "GI50", "setting": "[2]", "result": "44.5 µM (inactive)"}, {"measurement": "GI50", "setting": "[3]", "result": "> 100 µM (inactive)"}, {"measurement": "GI50", "setting": "[4]", "result": "28 µM (inactive)"}, {"measurement": "GI50", "setting": "[6]", "result": "66.7 µM (inactive)"}, {"measurement": "GI50", "setting": "[7]", "result": "40.5 µM (inactive)"}, {"measurement": "GI50", "setting": "[8]", "result": "> 100 µM (inactive)"}, {"measurement": "GI50", "setting": "[9]", "result": "> 100 µM (inactive)"}, {"measurement": "GI50", "setting": "[10]", "result": "> 100 µM (inactive)"}, {"measurement": "GI50", "setting": "[11]", "result": "41.9 µM (inactive)"}, {"measurement": "GI50", "setting": "[12]", "result": "> 100 µM (inactive)"}, {"measurement": "GI50", "setting": "[13]", "result": "69.8 µM (inactive)"}, {"measurement": "GI50", "setting": "[14]", "result": "> 100 µM (inactive)"}, {"measurement": "GI50", "setting": "[15]", "result": "57.4 µM (inactive)"}, {"measurement": "GI50", "setting": "[19]", "result": "> 100 µM (inactive)"}, {"measurement": "GI50", "setting": "[16]", "result": "35.1 µM (inactive)"}, {"measurement": "GI50", "setting": "[17]", "result": "80 µM (inactive)"}]}, {"smiles": "C=CCNC1=C2C[C@@H](C)C[C@@H](OC)[C@H](OC(=O)CCCCN)[C@H](C)/C=C(\\C)[C@@H](OC(N)=O)[C@H](OC)/C=C\\C=C(/C)C(=O)NC(=CC1=O)C2=O", "values": [{"measurement": "GI50", "setting": "[1]", "result": "> 100 µM (inactive)"}, {"measurement": "GI50", "setting": "[2]", "result": "14.6 µM (inactive)"}, {"measurement": "GI50", "setting": "[3]", "result": "19 µM (inactive)"}, {"measurement": "GI50", "setting": "[4]", "result": "11.7 µM (inactive)"}, {"measurement": "GI50", "setting": "[5]", "result": "12.6 µM (inactive)"}, {"measurement": "GI50", "setting": "[6]", "result": "13.4 µM (inactive)"}, {"measurement": "GI50", "setting": "[7]", "result": "4.27 µM (inactive)"}, {"measurement": "GI50", "setting": "[8]", "result": "12.8 µM (inactive)"}, {"measurement": "GI50", "setting": "[9]", "result": "25.6 µM (inactive)"}, {"measurement": "GI50", "setting": "[10]", "result": "3.72 µM (inactive)"}, {"measurement": "GI50", "setting": "[11]", "result": "6.18 µM (inactive)"}, {"measurement": "GI50", "setting": "[12]", "result": "6.47 µM (inactive)"}, {"measurement": "GI50", "setting": "[13]", "result": "7.01 µM (inactive)"}, {"measurement": "GI50", "setting": "[14]", "result": "6.31 µM (inactive)"}, {"measurement": "GI50", "setting": "[15]", "result": "11.9 µM (inactive)"}, {"measurement": "GI50", "setting": "[16]", "result": "5.83 µM (inactive)"}, {"measurement": "GI50", "setting": "[17]", "result": "19.5 µM (inactive)"}, {"measurement": "GI50", "setting": "[18]", "result": "9.62 µM (inactive)"}]}, {"smiles": "O=CNc1ccc(S(=O)(=O)c2ccc(NC=O)cc2)cc1", "values": [{"measurement": "GI50", "setting": "[1]", "result": "> 100 µM (inactive)"}, {"measurement": "GI50", "setting": "[2]", "result": "> 100 µM (inactive)"}, {"measurement": "GI50", "setting": "[3]", "result": "> 100 µM (inactive)"}, {"measurement": "GI50", "setting": "[4]", "result": "> 100 µM (inactive)"}, {"measurement": "GI50", "setting": "[5]", "result": "> 100 µM (inactive)"}, {"measurement": "GI50", "setting": "[6]", "result": "> 100 µM (inactive)"}, {"measurement": "GI50", "setting": "[7]", "result": "> 100 µM (inactive)"}, {"measurement": "GI50", "setting": "[8]", "result": "> 100 µM (inactive)"}, {"measurement": "GI50", "setting": "[9]", "result": "> 100 µM (inactive)"}, {"measurement": "GI50", "setting": "[10]", "result": "> 100 µM (inactive)"}, {"measurement": "GI50", "setting": "[11]", "result": "> 100 µM (inactive)"}, {"measurement": "GI50", "setting": "[12]", "result": "> 100 µM (inactive)"}, {"measurement": "GI50", "setting": "[13]", "result": "> 100 µM (inactive)"}, {"measurement": "GI50", "setting": "[14]", "result": "> 100 µM (inactive)"}, {"measurement": "GI50", "setting": "[15]", "result": "> 100 µM (inactive)"}, {"measurement": "GI50", "setting": "[16]", "result": "> 100 µM (inactive)"}, {"measurement": "GI50", "setting": "[17]", "result": "> 100 µM (inactive)"}, {"measurement": "GI50", "setting": "[18]", "result": "> 100 µM (inactive)"}]}, {"smiles": "[N-]=[N+]=Nc1c(-c2ccccc2)c(=O)n(-c2ccccc2)c2ccccc12", "values": [{"measurement": "GI50", "setting": "[1]", "result": "63 µM (inactive)"}, {"measurement": "GI50", "setting": "[2]", "result": "56 µM (inactive)"}, {"measurement": "GI50", "setting": "[4]", "result": "> 100 µM (inactive)"}, {"measurement": "GI50", "setting": "[5]", "result": "63.2 µM (inactive)"}, {"measurement": "GI50", "setting": "[6]", "result": "62.2 µM (inactive)"}, {"measurement": "GI50", "setting": "[7]", "result": "41.7 µM (inactive)"}, {"measurement": "GI50", "setting": "[8]", "result": "60.8 µM (inactive)"}, {"measurement": "GI50", "setting": "[9]", "result": "56.9 µM (inactive)"}, {"measurement": "GI50", "setting": "[11]", "result": "> 100 µM (inactive)"}, {"measurement": "GI50", "setting": "[12]", "result": "> 100 µM (inactive)"}, {"measurement": "GI50", "setting": "[13]", "result": "> 100 µM (inactive)"}, {"measurement": "GI50", "setting": "[14]", "result": "> 100 µM (inactive)"}, {"measurement": "GI50", "setting": "[15]", "result": "> 100 µM (inactive)"}, {"measurement": "GI50", "setting": "[19]", "result": "91.4 µM (inactive)"}, {"measurement": "GI50", "setting": "[16]", "result": "99.5 µM (inactive)"}, {"measurement": "GI50", "setting": "[17]", "result": "49.4 µM (inactive)"}, {"measurement": "GI50", "setting": "[18]", "result": "> 100 µM (inactive)"}]}, {"smiles": "Cc1ccc(S(=O)(=O)NCCN(CCNS(=O)(=O)c2ccc(C)cc2)S(=O)(=O)c2ccc(C)cc2)cc1", "values": [{"measurement": "GI50", "setting": "[1]", "result": "> 100 µM (inactive)"}, {"measurement": "GI50", "setting": "[2]", "result": "79.1 µM (inactive)"}, {"measurement": "GI50", "setting": "[3]", "result": "> 100 µM (inactive)"}, {"measurement": "GI50", "setting": "[5]", "result": "40.1 µM (inactive)"}, {"measurement": "GI50", "setting": "[6]", "result": "> 100 µM (inactive)"}, {"measurement": "GI50", "setting": "[7]", "result": "> 100 µM (inactive)"}, {"measurement": "GI50", "setting": "[8]", "result": "30.8 µM (inactive)"}, {"measurement": "GI50", "setting": "[9]", "result": "22.9 µM (inactive)"}, {"measurement": "GI50", "setting": "[10]", "result": "> 100 µM (inactive)"}, {"measurement": "GI50", "setting": "[11]", "result": "> 100 µM (inactive)"}, {"measurement": "GI50", "setting": "[12]", "result": "> 100 µM (inactive)"}, {"measurement": "GI50", "setting": "[13]", "result": "> 100 µM (inactive)"}, {"measurement": "GI50", "setting": "[14]", "result": "43.1 µM (inactive)"}, {"measurement": "GI50", "setting": "[15]", "result": "25.7 µM (inactive)"}, {"measurement": "GI50", "setting": "[16]", "result": "47.4 µM (inactive)"}, {"measurement": "GI50", "setting": "[17]", "result": "60 µM (inactive)"}, {"measurement": "GI50", "setting": "[18]", "result": "> 100 µM (inactive)"}]}]}
